Data published in US8119681B2, “2-[1-phenyl-5-hydroxy or methoxy-4alpha-methyl-hexahydrocyclopenta [ƒ]indazole-5-YL]ethyl phenyl derivatives as glucocorticoid receptor ligands” (Merck Sharp & Dohme Corp., priority 2006, dated 2012).
Read-outs that look alike come from different tables or passages of the source.

Biological target: T1, human GR (Homo sapiens, UniProt P04150)
T1 sequence (P04150 1-777): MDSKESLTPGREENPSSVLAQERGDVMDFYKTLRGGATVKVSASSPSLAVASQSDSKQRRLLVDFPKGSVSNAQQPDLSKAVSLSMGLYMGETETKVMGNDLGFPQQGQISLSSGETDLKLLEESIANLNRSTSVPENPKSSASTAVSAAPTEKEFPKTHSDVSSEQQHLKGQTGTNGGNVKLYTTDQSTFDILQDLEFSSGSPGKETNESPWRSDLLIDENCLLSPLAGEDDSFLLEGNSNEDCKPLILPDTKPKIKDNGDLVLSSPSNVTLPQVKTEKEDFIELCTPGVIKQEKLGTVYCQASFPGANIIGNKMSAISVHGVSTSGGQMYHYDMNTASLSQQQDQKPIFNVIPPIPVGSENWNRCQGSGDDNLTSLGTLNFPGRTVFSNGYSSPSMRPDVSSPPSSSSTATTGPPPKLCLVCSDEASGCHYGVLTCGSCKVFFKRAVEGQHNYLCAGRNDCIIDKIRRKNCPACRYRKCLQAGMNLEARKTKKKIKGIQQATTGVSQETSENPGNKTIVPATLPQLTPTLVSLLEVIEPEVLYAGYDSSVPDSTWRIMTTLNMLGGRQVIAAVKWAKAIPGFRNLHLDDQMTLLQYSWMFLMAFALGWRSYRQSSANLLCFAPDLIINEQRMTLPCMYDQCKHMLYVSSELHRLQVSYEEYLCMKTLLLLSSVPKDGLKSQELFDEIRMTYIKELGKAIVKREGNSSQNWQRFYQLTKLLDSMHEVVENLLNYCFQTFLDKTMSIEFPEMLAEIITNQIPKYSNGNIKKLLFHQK
Assay: Transrepression Assay (GITAR), TNFα-β-lactamase reporter gene in U937 cells
Type: cell-based
Design: U937 cells contain an endogenous glucocorticoid receptor (GR); endogenous in cells; host or cells: U937 cells stably transfected with the TNF-α promoter/β-lactamase reporter only
From the text: Transrepression Assay (GITAR)
This assay assesses the ability of test compounds to control transcription from the TNFα-β-lactamase reporter gene in U937 cells, a human myelomonocytic leukemia cell line that naturally expresses the human GR. The assay measures compound dependent-repression of the TNFa promoter linked to a reporter gene.
The human U937 cells that had been stably transfected with the TNF-α promoter driving β-lactamase are used for this assay. U937 cells contain an endogenous glucocorticoid receptor (GR). […] 50,000 cells/well are plated in 96 well black-walled plates the day of assay. Test compounds are added 10 μL/well, and cells are incubated at 37° C. for 30˜45 min. For assaying compounds, first dilute 1:10 in DMSO to make 1 mM, then further dilute 1:100 in medium to make 10× stock prior to adding to the cells. Add 50 ng/ml PMA (Sigma, cat# P8139) 10 μL/well to a final concentration 5 ng/ml, and 1 μg/ml LPS (Sigma, cat# L4130) 10 μL/well to a final concentration 100 ng/ml. Incubate cells at 370 C overnight for ˜18 hr. PMA is stored frozen as 100 μg/ml stock in DMSO. Dilute 1:10 in DMSO for a working stock of 10 μg/ml and store at −20 C. For assaying, dilute the 10 μg/ml working stock 1:200 in medium to make a 10× solution (50 ng/ml). Store frozen LPS at 1 mg/ml in PBS, dilute 1:1000 in medium to make 10× (1 μg/ml) for the assay. Add 6× loading buffer (CCF2-AM) 20 μL/well, and incubate at room temperature for 70˜90 min. […] The activity repressed by 100 nM dexamethasone alone is set as 100% activity.

[1] = U-937, 100 nM dexamethasone = 100% activity, read-out: maximal activity in the transrepression assay

| Structure (SMILES) | Emax [1] | Emax (U-937, read-out: maximal activity in the transrepression assay) |
| --- | --- | --- |
| C[C@]12Cc3cnn(-c4ccc(F)cc4)c3C=C1CC[C@@]2(O)CCc1ccccc1C(=O)O [Example 1, 2-{2-[(4αS,5R)-1-(4-Fluorophenyl)-5-hydroxy-4α-methyl-1,4,4α,5,6,7-hexahydrocyclopenta[f]indazol-5-yl]ethyl}benzoic acid] | 5 to 100% |  |
| C[C@]12Cc3cnn(-c4ccc(F)cc4)c3C=C1CC[C@@]2(O)CCc1ccccc1CNC(=O)C1CC1 [Example 4] | 5 to 100% |  |
| CCOC(=O)NCc1ccccc1CC[C@]1(O)CCC2=Cc3c(cnn3-c3ccc(F)cc3)C[C@@]21C [Example 6, Ethyl(2-(2-[(4αS,5R)-1-(4-fluorophenyl)-5-hydroxy-4α-methyl-1,4,4α,5,6,7-hexahydrocyclopenta(f)indazol-5-yl]ethyl)benzyl)carbamate] | 5 to 100% |  |
| C[C@]12Cc3cnn(-c4ccc(F)cc4)c3C=C1CC[C@@]2(O)CCc1ccccc1C1(NS(=O)(=O)C2CC2)CC1 [Example 7, N-[1-(2-{2-[(4αS,5R)-1-(4-Fluorophenyl)-5-hydroxy-4α-methyl-1,4,4α,5,6,7-hexahydrocyclopenta[f]indazol-5-yl]ethyl}phenyl)cyclopropyl]cyclopropanesulfonamide] | 5 to 100% |  |
| C[C@@H](NS(=O)(=O)C1CC1)c1ccccc1CC[C@]1(O)CCC2=Cc3c(cnn3-c3ccc(F)cc3)C[C@@]21C [Example 8, N-[(1R)-1-(2-{2-[(4αS,5R)-1-(4-Fluorophenyl)-5-hydroxy-4α-methyl-1,4,4α,5,6,7-hexahydrocyclopenta[f]indazol-5-yl]ethyl}phenyl)ethyl]cyclopropanesulfonamide] | 5 to 100% |  |
| CCNC(=O)OCc1ccccc1CC[C@]1(O)CCC2=Cc3c(cnn3-c3ccc(F)cc3)C[C@@]21C [Example 9] | 5 to 100% |  |
| CCNC(=O)Oc1ccccc1CC[C@]1(O)CCC2=Cc3c(cnn3-c3ccc(F)cc3)C[C@@]21C [Example 18, 2-{2-[(4αS,5R)-1-(4-fluorophenyl)-5-hydroxy-4α-methyl-1,4,4α,5,6,7-hexahydrocyclopenta[f]indazol-5-yl]ethyl}phenyl ethylcarbamate] |  | 5 to 100% |

Further lines, with some results ahead:

| Emax [1] | Structure (SMILES) | Emax (U-937, read-out: maximal activity in the transrepression assay) |
| --- | --- | --- |
| 5 to 100% | C[C@]12Cc3cnn(-c4ccc(F)cc4)c3C=C1CC[C@@]2(O)CCc1ccccc1-c1ccc(F)nc1 [Example 10, (4αS,5R)-1-(4-fluorophenyl)-5-{2-[2-(6-fluoropyridin-3-yl)phenyl]ethyl}-4α-methyl-1,4,4α,5,6,7-hexahydrocyclopenta[f]indazol-5-ol] |  |
| 5 to 100% | CCOC(=O)Nc1ccccc1CC[C@]1(O)CCC2=Cc3c(cnn3-c3ccc(F)cc3)C[C@@]21C [Example 12, ethyl (2-{2-[(4αS,5R)-1-(4-fluorophenyl)-5-hydroxy-4α-methyl-1,4,4α,5,6,7-hexahydrocyclopenta[f]indazol-5-yl]ethyl}phenyl)carbamate] |  |
| 5 to 100% | CCNC(=O)Nc1ccccc1CC[C@]1(O)CCC2=Cc3c(cnn3-c3ccc(F)cc3)C[C@@]21C [Example 13, N-ethyl-N′-(2-{2-[(4αS,5R)-1-(4-fluorophenyl)-5-hydroxy-4α-methyl-1,4,4α,5,6,7-hexahydrocyclopenta[f]indazol-5-yl]ethyl}phenyl)urea] |  |
| 5 to 100% | C[C@]12Cc3cnn(-c4ccc(F)cc4)c3C=C1CC[C@@]2(O)CCc1ccccc1O [Example 16, (4αS,5R)-1-(4-fluorophenyl)-5-[2-(2-hydroxyphenyl)ethyl]-4α-methyl-1,4,4α,5,6,7-hexahydrocyclopenta[f]indazol-5-ol] |  |
| 5 to 100% | CCOC(=O)Oc1ccccc1CC[C@]1(O)CCC2=Cc3c(cnn3-c3ccc(F)cc3)C[C@@]21C [Example 17, Ethyl-(2-(2-[(4αS,5R)-1-(4-fluorophenyl)-5-hydroxy-4α-methyl-1,4,4α,5,6,7-hexahydrocyclopenta(f)indazol-5-yl]ethyl)phenyl)carbonate] |  |
| 5 to 100% | C[C@]12Cc3cnn(-c4ccc(F)cc4)c3C=C1CC[C@@]2(O)CCc1ccccc1C#N [Example 20, 2-{2-[(4αS,5R)-1-(4-fluorophenyl)-5-hydroxy-4α-methyl-1,4,4α,5,6,7-hexahydrocyclopenta[f]indazol-5-yl]ethyl}benzonitrile] |  |
